# Results published in patent EP1156056A1, “5-GLYCOSYLOXY-6-HYDROXYNAPHTHO 2,3-f]QUINOLINE-7,12-DIONE HAVING ANTICANCER ACTIVITIES” (ZAIDAN HOJIN BISEIBUTSU KAGAKU KENKYU KAI, priority 1999, dated 2000).
# Read-outs that look alike come from different tables or passages of the source.
# Key:
# [1] = tested on: human acute promyeloleukemia (HL60); assay: Inhibition of proliferation of cancer cells in culture (Test Examples 1 and 3); assay type: cell-based
# Description: (§1) A culture medium for cancer cells was put into test tubes. To the culture medium in each tube, there was transplanted each of such various mouse cancer cells or human cancer cells as shown in Table 1 below. The cells so transplanted were cultivated under the conditions at 37°C in an air atmosphere containing 5 % CO2. To the medium containing the cancer cells so cultivated, there was added said Compounds A, B, D, E or F of this invention at different concentrations, as the test compound. […] As the comparative compound, adriamycin now clinically used was tested to repeat the test in the same way.
# (§2) Namely, they are mouse colon cancer (colon 26), mouse B-cell lymphoma (LB32T), mouse lymphoma (L-1210), human cervical cancer (HeLa), human acute promyeloleukemia (HL60), human prostatic cancer (PC3), human pudendal squamous cell carcinoma (A431), human pulmonary carcinoma (PC6), human mastocarcinoma (MCF7), human esophageal carcinoma (TT), human prostatic cancer (LNcap) and human colon cancer (DLD-1).
# (§3) The test method and the nature of cancer cells to be tested are the same as those in Test Example 1 given hereinbefore. In this Test Example 3, however, eight kinds of cancer cells indicated in Table 3 below are used, among the twelve kinds of cancer cells which were used in Test Example 1.
# (§4) As the test results of measurement, the evaluated values of the concentration of each test compound which could inhibit the proliferation of cancer cells by 50 % (namely, 50 % inhibitory concentration:IC50, µg/ml) are given in Table 3.
# [2] = tested on: human cervical cancer (HeLa); assay: as above; assay type: cell-based
# Description: as §1, §2, §3, §4
# [3] = tested on: mouse B-cell lymphoma (LB32T); assay: as above; assay type: cell-based
# Description: as §1, §2, §3, §4
# [4] = tested on: human colon cancer (DLD-1); assay: as above; assay type: cell-based; conditions: for IC50: Homo sapiens
# Description: as §1, §2, §3, §4
# mouse lymphoma (L-1210) = assay: as above; assay type: cell-based
# Description: as §1, §2, §3, §4
# [5] = tested on: human prostatic cancer (LNcap); assay: as above; assay type: cell-based
# Description: as §1, §2, §3, §4
# [6] = tested on: mouse colon cancer (colon 26); assay: as above; assay type: cell-based
# Description: as §1, §2, §3, §4
# [7] = tested on: human prostatic cancer (PC3); assay: as above; assay type: cell-based; conditions: for IC50: Homo sapiens
# Description: as §1, §2, §3, §4
# [8] = tested on: human esophageal carcinoma (TT); assay: Inhibition of proliferation of cancer cells in culture (Test Example 1); assay type: cell-based; conditions: 72 hours cultivation, read-out: Concentration of test compound to inhibit the proliferation of cancer cells by 50 %
# Description: as §1, §2
# [9] = tested on: human pulmonary carcinoma (PC6); assay: as above; assay type: cell-based; conditions: 72 hours cultivation, read-out: Concentration of test compound to inhibit the proliferation of cancer cells by 50 %
# Description: as §1, §2
# [10] = tested on: human mastocarcinoma (MCF7); assay: as above; assay type: cell-based; conditions: 72 hours cultivation, read-out: Concentration of test compound to inhibit the proliferation of cancer cells by 50 %
# Description: as §1, §2
# [11] = tested on: human pudendal squamous cell carcinoma (A431); assay: as above; assay type: cell-based; conditions: A-431, 72 hours cultivation, read-out: Concentration of test compound to inhibit the proliferation of cancer cells by 50 %
# Description: as §1, §2
# ICR mice = assay: Acute toxicity in mice, survival after intraperitoneal administration (Test Example 2); conditions: ICR mice, intraperitoneal
# Description: In this Test Example, the acute toxicity of Compound A of this invention as administered to mice was evaluated. […] By way of comparison, similar test was carried out with adriamycin (in the form of hydrochloride) .
# [12] = HL-60, Test Example 3, Compounds N to T used as trifluoroacetate, read-out: IC50
# [13] = Test Example 3, Compounds N to T used as trifluoroacetate, read-out: IC50
# [14] = L1210, Test Example 3, Compounds N to T used as trifluoroacetate, read-out: IC50
# [15] = LNCap, Test Example 3, Compounds N to T used as trifluoroacetate, read-out: IC50
# [16] = Colon26, Test Example 3, Compounds N to T used as trifluoroacetate, read-out: IC50
# [17] = HL-60, 72 hours cultivation, Test Example 1, read-out: Concentration of test compound to inhibit the proliferation of cancer cells by 50 %, IC50
# [18] = 72 hours cultivation, Test Example 1, read-out: Concentration of test compound to inhibit the proliferation of cancer cells by 50 %, IC50
# [19] = Test Example 1, relative to adriamycin
# [20] = LNcap, 72 hours cultivation, Test Example 1, read-out: Concentration of test compound to inhibit the proliferation of cancer cells by 50 %, IC50
# [21] = Test Example 3, relative to adriamycin
Compound,"IC50 [1, 12] [µg/mL]","IC50 [2, 13] [µg/mL]","IC50 [3, 13] [µg/mL]","IC50 [4, 13] [µg/mL]",IC50 (mouse lymphoma (L-1210); [14]) [µg/mL],"IC50 [5, 15] [µg/mL]","IC50 [6, 16] [µg/mL]","IC50 [7, 13] [µg/mL]",IC50 [8] [µg/mL],IC50 [9] [µg/mL],IC50 [10] [µg/mL],IC50 [11] [µg/mL],"IC50 [1, 17] [µg/mL]","IC50 [2, 18] [µg/mL]","IC50 [4, 18] [µg/mL]","IC50 [5, 20] [µg/mL]","IC50 [7, 18] [µg/mL]",also measured
"C[C@@H]1O[C@@H](Oc2c(O)c3c(c4cccnc24)C(=O)c2ccccc2C3=O)[C@H](F)[C@H](O)[C@H]1N [Compound F, 5-(4-amino-2,4,6-trideoxy-2-fluoro-α-L-mannopyranosyloxy)-6-hydroxynaphtho[2,3-f]quinoline-7,12-dione]",,,,,,,,,3.48,2.92,2.46,2.25,0.11,0.34,0.17,0.67,0.35,"anticancer activities against DLD-1, times higher than those of adriamycin [4, 19]: 11 times; anticancer activities against PC3, times higher than those of adriamycin [7, 19]: 2.6 times"
"COc1cccc2c1C(=O)c1c(O)c3c(c(O)c1C2=O)C[C@@](O)(C(=O)CO)C[C@@H]3O[C@H]1C[C@H](N)[C@H](O)[C@H](C)O1 [Adriamycin, reference compound]",0.03,0.06,0.04,3.4,0.38,0.1,0.09,1.14,1.38,1.01,1.02,1.33,0.03,0.06,1.9,0.07,0.9,"dosage at which the total number of mice survived for 14 days (ICR mice; 14 days): 0.125 mg/mouse; Survival day(s) of respective mice (ICR mice; dosage 0.125 mg/mouse, 4 mice per group, observed 14 days): >14 (all mice) day(s); IC50 [3, 18]: 0.03 µg/mL; IC50 (mouse lymphoma (L-1210); L1210, 72 hours cultivation, Test Example 1, read-out: Concentration of test compound to inhibit the proliferation of cancer cells by 50 %, IC50): 0.24 µg/mL; IC50 ([6]; colon26, 72 hours cultivation, Test Example 1, read-out: Concentration of test compound to inhibit the proliferation of cancer cells by 50 %, IC50): 0.07 µg/mL"

# Continued, in another order:
"IC50 [1, 12] [µg/mL]","IC50 [2, 13] [µg/mL]","IC50 [3, 13] [µg/mL]","IC50 [4, 13] [µg/mL]",IC50 (mouse lymphoma (L-1210); [14]) [µg/mL],"IC50 [5, 15] [µg/mL]","IC50 [6, 16] [µg/mL]","IC50 [7, 13] [µg/mL]",Compound,IC50 [8] [µg/mL],IC50 [9] [µg/mL],IC50 [10] [µg/mL],IC50 [11] [µg/mL],"IC50 [1, 17] [µg/mL]","IC50 [2, 18] [µg/mL]","IC50 [4, 18] [µg/mL]","IC50 [5, 20] [µg/mL]","IC50 [7, 18] [µg/mL]",also measured
0.78,0.15,0.8,0.45,1.17,0.57,0.55,0.65,"C[C@@H]1O[C@H](Oc2c(OC(=O)CCN)c3c(c4cccnc24)C(=O)c2ccccc2C3=O)[C@@H](F)[C@H](OC(=O)CCN)[C@@H]1OC(=O)CCN [Compound T, 5-[3,4-di-O-(3-aminopropionyl)-2,6-dideoxy-2-fluoro-β-L-galactopyranosyloxy)-6-(3-aminopropionyloxy)-naphtho[2,3-f]quinoline-7,12-dione]",,,,,,,,,,
0.54,0.29,0.68,0.18,0.72,0.47,0.46,0.39,"C[C@@H]1O[C@H](Oc2c(O)c3c(c4cccnc24)C(=O)c2ccccc2C3=O)[C@@H](F)[C@H](OC(=O)CCN)[C@@H]1O [Compound R, 5-[3-O-(3-aminopropionyl)-2,6-dideoxy-2-fluoro-β-L-galactopyranosyloxy]-6-hydroxynaphtho [2,3-f]quinoline-7,12-dione]",,,,,,,,,,"anticancer activity against DLD-1, times higher than that of adriamycin [4, 21]: 19 times; anticancer activity against PC3, times higher than that of adriamycin [7, 21]: 2.9 times"
0.68,0.64,0.79,0.42,1.13,0.52,0.65,0.55,"C[C@@H]1O[C@H](Oc2c(O)c3c(c4cccnc24)C(=O)c2ccccc2C3=O)[C@@H](F)[C@H](OC(=O)CCN)[C@@H]1OC(=O)CCN [Compound S, 5-[3,4-di-O-(3-aminopropionyl)-2,6-dideoxy-2-fluoro-β-L-galactopyranosyloxy]-6-hydroxynaphtho[2,3-f] quinoline-7,12-dione]",,,,,,,,,,
